The nature of data set [1]: tail compression test in mice (analgesic activity). To be noted: values marked * (I, II, III, VII) are statistically significant. Also on record: unit not given here. In kind it is in vivo, mouse. The source says: The tail compression test has been carried out in mice according to the method described by C. Bianchi (Brit. J. Pharmacol., 11, 104; 1956) by determining the time in seconds between the algic stimulation and the reaction of the mouse.

Data set [2] can be described thus: carrageenin-induced rat paw edema test (anti-inflammatory activity). As to conditions: oral, one hour before 2% carrageenin, paw volume 5 hours after, values marked * (I, V, VI, VII, VIII) are statistically significant. More on the design: unit not given here. It is filed as in vivo. The source says: For the determination of the anti-inflammatory activity, the carrageenin-induced rat paw edema test, as a modification of the method reported by C. A. Winth et al. (Proc. Soc. Exptl. Biol. Med., 111, 544; 1962) has been used. This method involves the reduction of the edema caused by the injection of a 2% carrageenin solution in the rat paw. The compounds under examination have been administered by oral route one hour before the injection of the edemigenic agent. The volume of the rat paw has been measured by a plethismometer before and 5 hours after the injection of the carrageenin.

Data set [3] in a line: ulcerogenic activity in rats (DU50). To be noted: rat, in vivo. From the text:
The ulcerogenic activity is expressed as DU50 in rats according to the method described by Dabrodie et al (Science, 170, 183; 1970).

For data set [4] the following is noted: head DL50*: data statistically significant.
A short description of data set [5]: in vivo. As to conditions: mouse.
Data set [6] can be described thus: in vivo. To be noted: rat.
The mark [7] stands for this setting: rats, head DU50*: data statistically significant, read-out: DU50 ulcerogenic activity.

Data on 16 compounds can be found in US4529737A, “Analgesic and anti-inflammatory arylalkanoic acid phthalidyl esters and pharmaceutical compositions thereof” (priority 1979, dated 1985).

Molecules are shown by their SMILES. Where two headings read alike, the source gives them in different places.

As for `CC(C)Cc1ccc(C(C)C(=O)O)cc1` (stereo not drawn) [Compound I, 2-(4-isobutylphenyl)propionic acid, reference compound], the “Analgesic activity DE50” value in data set [1] was 5.28. Also, the “Anti-inflammatory activity DE50” value in data set [2] worked out at 59.14. In addition, in data set [3], the TD50 came to 85.9 mg/kg. In addition, the “DL50 acute toxicity, rat” value in data set [4] came out at 1480.00 mg/kg.

On to `CC(C)Cc1ccc(C(C)C(=O)OC2OC(=O)c3ccccc32)cc1` (stereo not drawn) [Compound IA, phthalidyl 2-(4-isobutylphenyl)propionate], for which the “Analgesic activity DE50” value in data set [1] worked out at 2.08. The “Anti-inflammatory activity DE50” value in data set [2] is given as 4.30. This compound gave a TD50 in data set [3] of 144 mg/kg. In addition, the LD50 in the data set “in vivo [5]” was 1540 mg/kg; in “in vivo [6]”, 2180 mg/kg.

As for `COc1ccc2cc([C@H](C)C(=O)O)ccc2c1` [Compound II, d-2-(6-methoxy-2-naphthyl)propionic acid, reference compound], the “Analgesic activity DE50” value in data set [1] is 21.90. Moreover, the “Anti-inflammatory activity DE50” value in data set [2] was 16.36. For the same compound, the TD50 in data set [3] (setting [7]) is 78.7 mg/kg.

On to `COc1ccc2cc(C(C)C(=O)OC3OC(=O)c4ccccc43)ccc2c1` (stereo not drawn) [Compound IIA, phthalidyl d-2-(6-methoxy-2-naphthyl)propionate], for which the “Analgesic activity DE50” value in data set [1] is reported as 5.81. The “Anti-inflammatory activity DE50” value in data set [2] stood at 14.82. The compound further yielded a TD50 in data set [3] of 133 mg/kg. The LD50 in the data set “in vivo [5]” amounted to 2140 mg/kg; in “in vivo [6]”, 1060 mg/kg.

Take `CC(C(=O)O)c1cccc(C(=O)c2ccccc2)c1` (stereo not drawn) [Compound III, 2-(3-benzoylphenyl)propionic acid, reference compound]: the “Analgesic activity DE50” value in data set [1] was found to be 3.01. Moreover, the “Anti-inflammatory activity DE50” value in data set [2] was 4.36. Besides, the TD50 in data set [3] (setting [7]) came out at 31.5 mg/kg.

Turning to `CC(C(=O)OC1OC(=O)c2ccccc21)c1cccc(C(=O)c2ccccc2)c1` (stereo not drawn) [Compound IIIA, phthalidyl 2-(3-benzoylphenyl)propionate], the “Analgesic activity DE50” value in data set [1] came out at 1.34. For the same compound, in data set [2], the “Anti-inflammatory activity DE50” value was determined as 5.15. Also, the TD50 in data set [3] came out at 76.7 mg/kg. Besides, the LD50 is 514 mg/kg in the data set “in vivo [5]” and 342 mg/kg in the data set “in vivo [6]”.

In the case of `CC(C(=O)O)c1ccc(N2Cc3ccccc3C2=O)cc1` (stereo not drawn) [Compound IV, 2-[4-(1-oxo-2-isoindolinyl)phenyl]propionic acid, reference compound], in data set [1], the “Analgesic activity DE50” value is given as 2.58. Besides, the “Anti-inflammatory activity DE50” value in data set [2] is given as 5.45. In addition, the TD50 in data set [3] came out at 51.1 mg/kg. The LD50 was determined as 536 mg/kg in the data set “in vivo [5]” and 62.3 mg/kg in the data set “in vivo [6]”.

In the case of `CC(C(=O)OC1OC(=O)c2ccccc21)c1ccc(N2Cc3ccccc3C2=O)cc1` (stereo not drawn) [Compound IVA, phthalidyl 2-[4-(1-oxo-2-isoindolinyl)phenyl]propionate], the “Analgesic activity DE50” value in data set [1] is 2.18. Besides, the “Anti-inflammatory activity DE50” value in data set [2] is listed as 4.45. Also, in data set [3], the TD50 stood at 116 mg/kg. Further, the LD50 in the data set “in vivo [5]” stood at 987 mg/kg; in “in vivo [6]”, 234 mg/kg.

Turning to `C=CCOc1ccc(CC(=O)O)cc1Cl` [Compound V, 4-allyloxy-3-chlorophenylacetic acid, reference compound], in data set [1], the “Analgesic activity DE50” value is recorded as 2.43. Further, in data set [2], the “Anti-inflammatory activity DE50” value stood at 1058.45. The compound further came in with a TD50 in data set [3] of 214 mg/kg.

As for `C=CCOc1ccc(CC(=O)OC2OC(=O)c3ccccc32)cc1Cl` (stereo not drawn) [Compound VA, phthalidyl 4-allyloxy-3-chlorophenylacetate], the “Analgesic activity DE50” value in data set [1] amounted to 2.50. Also, the “Anti-inflammatory activity DE50” value in data set [2] worked out at 117.34. The TD50 in data set [3] was 380 mg/kg. Besides, the figures for the median lethal dose (LD50) in the data set “in vivo [5]” and in “in vivo [6]” were 2060 mg/kg and 1770 mg/kg, respectively.

Take `O=C(O)Cc1ccccc1Nc1c(Cl)cccc1Cl` [Compound VI, 2-(2,6-dichloroanilino)phenylacetic acid, reference compound]: the “Analgesic activity DE50” value in data set [1] came to 3.81. The “Anti-inflammatory activity DE50” value in data set [2] came to 189.54. Besides, in data set [3] (setting [7]), the TD50 stood at 13.1 mg/kg.

Take `O=C(Cc1ccccc1Nc1c(Cl)cccc1Cl)OC1OC(=O)c2ccccc21` (stereo not drawn) [Compound VIA, phtalidyl 2-(2,6-dichloroanilino)phenylacetate]: the “Analgesic activity DE50” value in data set [1] was 4.33. In addition, the “Anti-inflammatory activity DE50” value in data set [2] turned out to be 144.21. The same compound gave a TD50 in data set [3] of 26.1 mg/kg. Further, the LD50 was found to be 593 mg/kg in “in vivo [5]” and 342 mg/kg in the data set “in vivo [6]”.

In the case of `O=C(O)CCC(=O)c1ccc(-c2ccccc2)cc1` [Compound VII, 4-(4-biphenylyl)-4-oxobutyric acid, reference compound], in data set [1], the “Analgesic activity DE50” value amounted to 4.02. In addition, the “Anti-inflammatory activity DE50” value in data set [2] came to 30.53. Also, the TD50 in data set [3] amounted to 78.7 mg/kg.

With `O=C(CCC(=O)c1ccc(-c2ccccc2)cc1)OC1OC(=O)c2ccccc21` (stereo not drawn) [Compound VIIA, phthalidyl 4-(4-biphenylyl)-4-oxobutyrate], the “Analgesic activity DE50” value in data set [1] came to 2.95. Further, in data set [2], the “Anti-inflammatory activity DE50” value was found to be 20.08. This compound also registered a TD50 in data set [3] of 146 mg/kg. In addition, the LD50 was found to be 1400 mg/kg in the data set “in vivo [5]” and 1380 mg/kg in “in vivo [6]”.

Consider `O=C(O)Cc1ccc(-c2ccccc2)cc1` [Compound VIII, 4-biphenylylacetic acid, reference compound], for which the “Analgesic activity DE50” value in data set [1] was found to be 3.07. In data set [2], the “Anti-inflammatory activity DE50” value is 21.79. Moreover, in data set [3], the TD50 was found to be 65.3 mg/kg. Also, the LD50 in “in vivo [5]” was determined as 750 mg/kg; in “in vivo [6]”, 635 mg/kg.

For the compound `O=C(Cc1ccc(-c2ccccc2)cc1)OC1OC(=O)c2ccccc21` (stereo not drawn) [Compound VIIIA, phtalidyl 4-biphenylylacetate], in data set [1], the “Analgesic activity DE50” value was found to be 2.78. In addition, in data set [2], the “Anti-inflammatory activity DE50” value was 13.28. Moreover, the TD50 in data set [3] was determined as 186 mg/kg. Besides, the values for the LD50 in “in vivo [5]” and in “in vivo [6]” were 1410 mg/kg and 1170 mg/kg, respectively.
